Where no end group is shown, it is not given here.
Experiments:
α4β1 integrin = α4β1 integrin (Homo sapiens, UniProt P05556+P13612); assay: α4β1 integrin-dependent Mn+2 stimulated M16B adhesion to rCS1; type: cell-based; set-up: endogenous in cells; settings: soluble peptide
α5β1 integrin = target: T1, α5β1 integrin (Homo sapiens, UniProt P05556+P08648); assay: Inhibition of α5β1 integrin dependent Mn+2 stimulated adhesion of K562 cells to fibronectin (FN); type: cell-based
T1 construct: erythroleukemic cell line K562, which expresses α5β1 but not α4β1 integrin; endogenous in cells; host or cells: K562 cells
Protocol: The cell adhesion assay was carried out as described above. […] Each data point represents the mean of triplicate determinations and the error bars represent the standard deviation of the mean. The solid black line represents adhesion to the negative control substrate, BSA.

α2β1 and α3β1 integrin = assay: Inhibition of α2β1, α3β1 integrin dependent human melanoma M14#5 cell adhesion to laminin and type IV collagen; type: cell-based; settings: 0.5 mg/ml peptide (0.42 mM), 30 minutes
Protocol: An experiment was conducted to examine the ability of FN-C/H V+Y (SEQ ID NO:1) to inhibit α2β1, α3β1 integrin dependent cell adhesion using an assay based on human melanoma cells (M14#5).
Laminin, type IV collagen and BSA were coated overnight in a 96 well microtiter plate at 10 μg/ml and blocked with 0.3% BSA. M14#5 cells were preincubated with 0.5 mg/ml of peptide (equivalent to 0.42 mM FN-C/H V and scrambled FN-C/H V and 0.17 mM CSI) and allowed to adhere to substrates for 30 minutes.

α1β2 (LFA-1) integrin = target: T2, α1β2 (LFA-1) integrin (Homo sapiens, UniProt P05107+P20701); assay: α1β2 (LFA-1) integrin dependent M16B adhesion to rICAM; type: cell-based
T2 construct: the B-cell line M16B (which both express functional α4β1 and α1β2 integrin); endogenous in cells; host or cells: M16B B-cell line
Protocol: To determine whether inhibition of adhesion by soluble FN-C/H V is specific for b1 integrins, the ability of this peptide to inhibit β2 integrin-dependent adhesion was also evaluated.

[1] = system: peripheral blood mononuclear cells and spleen cells; settings: reported, Wahl et al.; cited from earlier work
[2] = in vivo rat model, reported; cited from earlier work
VCAM = settings: reported; cited from earlier work

T1 sequence (P08648 42-894 limits assumed): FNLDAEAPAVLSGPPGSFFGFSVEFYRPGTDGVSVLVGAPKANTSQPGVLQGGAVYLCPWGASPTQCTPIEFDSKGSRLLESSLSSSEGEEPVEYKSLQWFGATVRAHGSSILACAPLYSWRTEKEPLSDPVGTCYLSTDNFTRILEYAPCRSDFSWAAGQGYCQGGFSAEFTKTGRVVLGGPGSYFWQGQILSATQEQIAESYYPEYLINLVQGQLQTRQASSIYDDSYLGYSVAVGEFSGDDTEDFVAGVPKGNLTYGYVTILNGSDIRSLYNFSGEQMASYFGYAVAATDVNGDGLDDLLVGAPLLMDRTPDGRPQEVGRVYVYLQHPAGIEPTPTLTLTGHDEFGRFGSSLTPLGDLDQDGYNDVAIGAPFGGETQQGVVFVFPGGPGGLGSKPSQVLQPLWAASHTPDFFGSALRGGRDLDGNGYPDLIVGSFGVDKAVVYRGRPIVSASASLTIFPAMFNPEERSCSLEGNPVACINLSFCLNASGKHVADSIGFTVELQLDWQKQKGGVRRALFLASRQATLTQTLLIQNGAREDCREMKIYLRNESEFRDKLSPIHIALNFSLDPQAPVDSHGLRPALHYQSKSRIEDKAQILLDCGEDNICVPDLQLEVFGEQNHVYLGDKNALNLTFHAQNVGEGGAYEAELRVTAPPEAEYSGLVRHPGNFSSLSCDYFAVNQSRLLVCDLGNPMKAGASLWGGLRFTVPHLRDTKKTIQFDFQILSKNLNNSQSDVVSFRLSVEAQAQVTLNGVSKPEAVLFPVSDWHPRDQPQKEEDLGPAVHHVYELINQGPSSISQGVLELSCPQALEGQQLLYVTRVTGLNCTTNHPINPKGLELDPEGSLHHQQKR
T1 sequence (P08648 895-1049 limits assumed): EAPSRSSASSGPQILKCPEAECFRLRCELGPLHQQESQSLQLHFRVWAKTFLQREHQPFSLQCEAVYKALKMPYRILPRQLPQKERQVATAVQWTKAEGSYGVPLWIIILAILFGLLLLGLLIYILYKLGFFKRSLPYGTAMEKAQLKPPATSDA
T1 sequence (P05556 21-798): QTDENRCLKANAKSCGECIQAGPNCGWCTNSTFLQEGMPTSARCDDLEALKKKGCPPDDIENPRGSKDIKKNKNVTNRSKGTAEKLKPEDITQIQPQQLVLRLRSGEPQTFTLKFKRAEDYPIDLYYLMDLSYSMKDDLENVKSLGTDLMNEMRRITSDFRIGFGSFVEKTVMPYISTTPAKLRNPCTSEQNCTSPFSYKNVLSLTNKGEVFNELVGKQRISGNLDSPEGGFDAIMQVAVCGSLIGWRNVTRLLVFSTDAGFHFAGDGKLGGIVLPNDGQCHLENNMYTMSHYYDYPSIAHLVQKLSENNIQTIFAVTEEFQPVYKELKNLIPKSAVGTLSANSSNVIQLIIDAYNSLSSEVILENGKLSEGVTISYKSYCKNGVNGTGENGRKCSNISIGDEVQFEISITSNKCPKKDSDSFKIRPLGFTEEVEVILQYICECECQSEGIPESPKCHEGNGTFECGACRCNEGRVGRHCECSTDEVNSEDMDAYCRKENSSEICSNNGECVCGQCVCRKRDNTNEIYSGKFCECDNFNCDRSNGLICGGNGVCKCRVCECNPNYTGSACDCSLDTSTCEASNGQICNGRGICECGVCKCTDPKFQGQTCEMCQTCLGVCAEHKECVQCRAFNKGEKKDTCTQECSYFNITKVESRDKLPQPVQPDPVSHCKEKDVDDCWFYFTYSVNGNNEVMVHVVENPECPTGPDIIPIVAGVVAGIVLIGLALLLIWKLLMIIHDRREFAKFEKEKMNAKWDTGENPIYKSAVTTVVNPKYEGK
α4β1 integrin, sequence (P13612 34-1032): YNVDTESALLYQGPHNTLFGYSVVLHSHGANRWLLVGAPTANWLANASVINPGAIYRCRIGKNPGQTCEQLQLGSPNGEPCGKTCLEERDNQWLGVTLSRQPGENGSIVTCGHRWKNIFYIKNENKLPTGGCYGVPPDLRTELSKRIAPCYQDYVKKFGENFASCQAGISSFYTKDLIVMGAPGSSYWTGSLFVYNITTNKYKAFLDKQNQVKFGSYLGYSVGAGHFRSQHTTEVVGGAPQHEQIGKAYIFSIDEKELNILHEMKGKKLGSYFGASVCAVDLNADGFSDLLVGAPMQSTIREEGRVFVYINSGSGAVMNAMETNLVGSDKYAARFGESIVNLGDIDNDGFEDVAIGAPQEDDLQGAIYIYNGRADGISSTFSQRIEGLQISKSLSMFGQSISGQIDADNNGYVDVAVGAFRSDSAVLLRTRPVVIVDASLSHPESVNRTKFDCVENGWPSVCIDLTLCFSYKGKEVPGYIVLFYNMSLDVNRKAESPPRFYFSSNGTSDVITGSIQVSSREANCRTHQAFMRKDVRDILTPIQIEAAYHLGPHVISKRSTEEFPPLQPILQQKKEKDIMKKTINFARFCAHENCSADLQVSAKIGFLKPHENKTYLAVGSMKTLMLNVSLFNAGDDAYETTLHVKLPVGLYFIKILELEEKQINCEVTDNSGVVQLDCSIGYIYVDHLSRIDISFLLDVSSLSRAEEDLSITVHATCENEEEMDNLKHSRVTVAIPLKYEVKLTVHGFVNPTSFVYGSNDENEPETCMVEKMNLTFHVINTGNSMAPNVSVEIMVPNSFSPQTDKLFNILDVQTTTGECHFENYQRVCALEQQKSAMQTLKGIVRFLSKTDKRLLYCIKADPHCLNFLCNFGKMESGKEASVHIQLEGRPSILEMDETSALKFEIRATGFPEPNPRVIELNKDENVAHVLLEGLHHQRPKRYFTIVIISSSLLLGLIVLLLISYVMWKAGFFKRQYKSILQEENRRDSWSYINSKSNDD
α4β1 integrin, sequence (P05556 21-798): as the sequence (P05556 21-798) above
T2 sequence (P20701 26-1170): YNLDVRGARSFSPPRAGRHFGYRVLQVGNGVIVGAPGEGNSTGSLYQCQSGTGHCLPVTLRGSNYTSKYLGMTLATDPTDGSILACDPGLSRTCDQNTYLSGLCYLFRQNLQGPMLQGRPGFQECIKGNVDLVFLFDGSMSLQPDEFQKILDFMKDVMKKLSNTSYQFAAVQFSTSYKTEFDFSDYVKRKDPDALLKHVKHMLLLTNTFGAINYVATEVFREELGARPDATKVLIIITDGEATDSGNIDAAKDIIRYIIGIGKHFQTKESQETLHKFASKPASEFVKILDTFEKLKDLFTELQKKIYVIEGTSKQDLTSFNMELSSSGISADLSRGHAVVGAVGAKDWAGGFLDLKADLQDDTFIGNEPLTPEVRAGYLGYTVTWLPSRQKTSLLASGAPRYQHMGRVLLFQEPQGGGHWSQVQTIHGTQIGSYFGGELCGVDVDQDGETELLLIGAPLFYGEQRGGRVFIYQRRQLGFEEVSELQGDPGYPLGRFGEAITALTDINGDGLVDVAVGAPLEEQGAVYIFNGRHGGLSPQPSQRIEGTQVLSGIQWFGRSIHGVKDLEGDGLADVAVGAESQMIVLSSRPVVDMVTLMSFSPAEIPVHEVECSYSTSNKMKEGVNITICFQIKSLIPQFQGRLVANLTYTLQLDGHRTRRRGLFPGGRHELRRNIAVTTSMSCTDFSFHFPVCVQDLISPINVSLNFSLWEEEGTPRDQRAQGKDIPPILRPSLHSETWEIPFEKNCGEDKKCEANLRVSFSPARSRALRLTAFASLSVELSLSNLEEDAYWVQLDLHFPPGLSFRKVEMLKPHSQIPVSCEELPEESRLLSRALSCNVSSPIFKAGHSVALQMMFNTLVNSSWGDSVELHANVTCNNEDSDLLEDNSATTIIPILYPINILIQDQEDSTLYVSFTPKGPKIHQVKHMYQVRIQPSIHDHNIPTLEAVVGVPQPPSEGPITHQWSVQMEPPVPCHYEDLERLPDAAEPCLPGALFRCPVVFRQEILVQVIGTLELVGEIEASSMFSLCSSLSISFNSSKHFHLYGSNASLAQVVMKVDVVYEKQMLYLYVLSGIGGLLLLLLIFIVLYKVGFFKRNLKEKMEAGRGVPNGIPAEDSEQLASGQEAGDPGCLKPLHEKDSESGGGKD
T2 sequence (P05107 23-769): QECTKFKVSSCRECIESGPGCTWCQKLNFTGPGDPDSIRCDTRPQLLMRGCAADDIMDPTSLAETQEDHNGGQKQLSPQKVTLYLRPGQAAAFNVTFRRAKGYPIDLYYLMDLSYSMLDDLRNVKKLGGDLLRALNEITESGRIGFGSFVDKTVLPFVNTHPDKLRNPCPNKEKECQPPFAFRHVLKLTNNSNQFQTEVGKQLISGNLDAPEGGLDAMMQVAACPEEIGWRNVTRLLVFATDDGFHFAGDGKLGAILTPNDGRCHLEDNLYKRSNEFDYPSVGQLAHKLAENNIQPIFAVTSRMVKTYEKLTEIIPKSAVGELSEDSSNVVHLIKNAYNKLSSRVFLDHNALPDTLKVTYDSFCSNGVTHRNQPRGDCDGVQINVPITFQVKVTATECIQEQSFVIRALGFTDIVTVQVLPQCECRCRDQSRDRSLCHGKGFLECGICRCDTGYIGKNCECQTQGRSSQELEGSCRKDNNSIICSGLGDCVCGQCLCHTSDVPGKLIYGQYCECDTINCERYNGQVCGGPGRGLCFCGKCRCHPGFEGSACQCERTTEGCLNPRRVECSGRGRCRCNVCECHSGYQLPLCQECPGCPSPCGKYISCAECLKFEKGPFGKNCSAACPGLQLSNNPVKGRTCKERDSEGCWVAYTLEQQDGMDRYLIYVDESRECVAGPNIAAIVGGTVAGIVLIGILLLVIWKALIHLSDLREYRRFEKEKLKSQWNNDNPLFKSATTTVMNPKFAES

Substance | inhibition of M16B adhesion to rCS1 (α4β1 integrin) | inhibition of K562 adhesion to FN at the maximal concentration tested (α5β1 integrin; 0.84 mM peptide, K562 cells stimulated with 1 mM MnCl2) | IC50 (α5β1 integrin; K562 cells stimulated with 1 mM MnCl2, adhesion to FN, read-out: half-maximal inhibitory concentration) [µM] | inhibition of M14#5 cell adhesion to laminin (α2β1 and α3β1 integrin; laminin coated substrate) | inhibition of M14#5 cell adhesion to type IV collagen (α2β1 and α3β1 integrin; type IV collagen coated substrate) | inhibition of M16B adhesion to rICAM (α1β2 (LFA-1) integrin) | inhibition of leukocyte adhesion to fibronectin in vitro [1] | anti-inflammatory properties [2] | inhibition of adhesion to VCAM (VCAM)
DELPQLVTLPHPNLHGPEILDVPST (listed as Homo sapiens) [CS1, fibronectin residues 1961-1985] | completely inhibited |  |  |  |  |  |  |  | 
WQPPRARIY-OH [SEQ ID NO:1] | completely inhibited | completely inhibited | 200 | inhibited | inhibited | not inhibited | inhibit leukocyte adhesion to fibronectin in vitro | exhibit anti-inflammatory properties | inhibit adhesion to VCAM
YEKPGSPPREV-VPRPRPGVY (YEKPGSPPREVVPRPRPGVY; listed as Homo sapiens) [FN-C/H I+Y] |  |  |  |  |  |  | inhibit leukocyte adhesion to fibronectin in vitro | exhibit anti-inflammatory properties | 

From patent publication US6849712B1, “Peptides with β1 integrin subunit dependent cell adhesion modulating activity” (Regents of the University of Minnesota, priority 1998, dated 2005)
